Test results as given in patent publication US9284299B2, “Substituted 1H-indazol-1-ol analogs as inhibitors of beta catenin/Tcf protein-protein interactions” (UNIVERSITY OF UTAH RESEARCH FOUNDATION, priority 2012, dated 2016).
Like-named read-outs stand apart in the source and are kept apart here.

What was measured:
[1] = tested on: HCT 116 colon cancer cell line; assay: MTS-based cell proliferation inhibition assay; settings: 72 h, dose-dependent (FIG. 2)
Experimental: The cell proliferation agent, 3-(4,5-dimethylthiazol-2-yl)-5-(3-carboxymethoxyphenyl)-2-(4-sulfophenyl)-2H-tetrazolium (“MTS”), was purchased from Promega (Madison, Wis.) and phenazinemethosulfate from Sigma-Aldrich (St. Louis, Mo.). Cultured cell lines were seeded in 96-well plates at 3×10^3 cells/well, maintained overnight at 37° C., and incubated in the presence of the tested compounds at various concentrations. […] Cells were incubated in 10 μL of this solution at 37° C. for 3 h and the UV absorption at 490 nm was measured. Vehicle-treated cells was used as the negative control. The IC50 values and the Hill slopes were generated using Graphpad Prism 5.0. All data were expressed as mean±SD.

[2] = molecular target: β-catenin/Tcf4 interaction (Homo sapiens (Human), UniProt P35222); assay: Fluorescence polarization (FP) competitive inhibition assay, β-catenin/Tcf4; format: binding
Experimental: Experiments were performed in 96-well Microfluor 2 black plates (Waltham, Mass.), and the samples were read by a Synergy 2 plate reader (Biotek, Winooski, Vt.). […] The final reaction volume is 100 μL.
In the foregoing equation, mP, is the signal of the positive control; mPbound is the signal of the negative control; and mP is the signal of the tested inhibitor compound.

[3] = Table 2, mean ± standard deviation (n=3), read-out: Ki FP

β-catenin/Tcf4 interaction, sequence (P35222 138-686): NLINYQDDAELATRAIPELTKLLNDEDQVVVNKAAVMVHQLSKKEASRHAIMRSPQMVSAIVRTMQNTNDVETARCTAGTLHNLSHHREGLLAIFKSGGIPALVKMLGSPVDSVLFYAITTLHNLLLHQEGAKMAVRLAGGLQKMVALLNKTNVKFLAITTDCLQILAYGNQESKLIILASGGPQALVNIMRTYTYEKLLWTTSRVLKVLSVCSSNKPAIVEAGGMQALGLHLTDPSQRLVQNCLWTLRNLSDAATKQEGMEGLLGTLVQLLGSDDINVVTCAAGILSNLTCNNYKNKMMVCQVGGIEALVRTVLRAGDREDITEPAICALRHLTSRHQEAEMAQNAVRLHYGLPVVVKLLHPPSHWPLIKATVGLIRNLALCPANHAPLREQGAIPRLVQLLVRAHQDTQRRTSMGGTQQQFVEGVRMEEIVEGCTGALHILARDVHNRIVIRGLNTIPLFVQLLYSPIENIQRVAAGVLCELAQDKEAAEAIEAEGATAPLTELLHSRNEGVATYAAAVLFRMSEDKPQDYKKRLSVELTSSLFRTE

Row | Ki [2, 3] [µM] | Compound | Inhibition of proliferation of colon cancer cell line HCT116 [1] | Ki ([2]; Table IV, FP assay, read-out: Ki ± SD β-catenin/Tcf4) [µM]
1 |  | 5-(2-(2H-TETRAZOL-5-YL)ETHYL)-1H-INDAZOL-1-OL [Compound 12] | inhibit the proliferation | 
2 | 165.4 ± 1.45 | O=c1[nH]c(Cc2ccc3c(c2)nnn3O)no1 [Compound 2, 3-((1-HYDROXY-1H-BENZO[D][1,2,3]TRIAZOL-5-YL)METHYL)-1,2,4-OXADIAZOL-5(4H)-ONE] |  | 
3 | 125 ± 1.3 | O=c1[nH]c(Cc2ccc3c(cnn3O)c2)no1 [Compound 10, 3-((1-HYDROXY-1H-INDAZOL-5-YL)METHYL)-1,2,4-OXADIAZOL-5(4H)-ONE] |  | 

Row | Compound | Ki [2, 3] [µM] | Inhibition of proliferation of colon cancer cell line HCT116 [1] | Ki ([2]; Table IV, FP assay, read-out: Ki ± SD β-catenin/Tcf4) [µM]
4 | COc1c(C[C@@H](C)OC(=O)Oc2ccc(O)cc2)c2c3c(C[C@@H](C)OC(=O)c4ccccc4)c(OC)c(=O)c4c(O)cc(OC)c(c5c(OC)cc(O)c(c1=O)c52)c43 [PKF115-584, reference compound] | 17.8 ± 2.13 |  | 17.8 ± 2.13
